In US5198462A, “Heterocyclic amine, derivatives, their production and use” (Takeda Chemical Industries, Ltd., priority 1990, dated 1993):

Assays:
[1] = target: T1, Acyl-CoA:cholesterol transferase (ACAT) (Rattus norvegicus, UniProt Q7TQM4); assay: Acyl-CoA:cholesterol transferase (ACAT)-inhibiting action; format: biochemical, Sprague-Dawley rats; settings: 10^-6 M; microsomal fraction of mucosal cells from rat small intestines; labeled cholesterol ester formed from [1-14C]oleyl-CoA; read-out: ACAT inhibiting rate (%) 10^-6 M
T1 construct: prepared from the microsomal fraction of mucosal cells from the small intestines of 6-week old Sprague-Dawley rats; from tissue; host or cells: microsomal fraction of small-intestinal mucosal cells, Sprague-Dawley rats
T1 sequence (Q7TQM4 1-524): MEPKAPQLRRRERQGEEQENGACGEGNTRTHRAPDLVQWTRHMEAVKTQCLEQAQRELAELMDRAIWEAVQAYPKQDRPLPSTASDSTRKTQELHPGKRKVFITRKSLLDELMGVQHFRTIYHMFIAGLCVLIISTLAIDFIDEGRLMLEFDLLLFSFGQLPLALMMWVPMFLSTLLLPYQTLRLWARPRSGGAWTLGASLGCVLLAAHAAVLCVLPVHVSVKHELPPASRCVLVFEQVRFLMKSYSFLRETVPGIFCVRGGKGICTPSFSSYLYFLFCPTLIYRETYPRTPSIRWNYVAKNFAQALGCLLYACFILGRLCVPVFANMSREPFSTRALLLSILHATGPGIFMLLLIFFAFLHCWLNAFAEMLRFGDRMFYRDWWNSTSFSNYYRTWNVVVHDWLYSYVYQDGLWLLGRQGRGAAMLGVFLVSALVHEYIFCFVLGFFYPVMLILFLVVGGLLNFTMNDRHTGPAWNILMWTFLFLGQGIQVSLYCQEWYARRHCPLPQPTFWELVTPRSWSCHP
Procedure: The enzyme specimen ACAT was prepared from the microsomal fraction of mucosal cells from the small intestines of 6-week old Sprague-Dawley rats fasted for 20 hours, in accordance with the method described by Heider, et al. on Journal of Lipid Research, Vol. 24, p. 1127 (1982).
The activity of ACAT was calculated by determining the amount of labeled cholesterol ester formed from [1-^14 C]oleyl-CoA and endogenous cholesterol.
In Table 1, the inhibition rate (%) of formation of labeled cholesterol ester by the addition of test compounds (representing the compounds obtained by the following Working Examples 1 to 31) in an amount of 10^-6 M is shown as the index of the action of inhibiting ACAT.

[2] = Plasma cholesterol lowering activity in cholesterol fed rat; format: in vivo, Sprague-Dawley rats; settings: 4 days, 1% cholesterol diet, n=5, mean ± standard deviation, *p < 0.05 vs. control (control 191.0 ± 25.6)
Procedure: 7-week old, male Sprague-Dawley rats were fed a 1% cholesterol diet (containing 0.5% cholic acid and 5% olive oil) for three days, and then the rats were grouped according to the plasma cholesterol level (n=5). They were fed with the diet as described above containing test compound for further 4 days. Blood was collected from the rats during 8:30-10:00 am at the fed state, and the plasma cholesterol level was measured enzymatically. The amount of test compound consumed by rats was calculated on the basis of the amount of the diet consumed by the rats.

Row | inhibition at 1 µM [1] | Structure (SMILES) | Cholesterol in Serum ([2]; dose 0.14 mg/kg/day in diet) | Cholesterol in Serum ([2]; dose 0.13 mg/kg/day in diet)
1 | 98% | O=C(Nc1ccc(F)cc1F)Nc1oc(=O)c2ccc(Cl)cc2c1-c1ccccc1 [Example 1, N-(6-Chloro-4-phenylisocoumarin-3-yl)-N'-(2,4-difluorophenyl)urea] |  | 
2 | 64.9% | Cc1cc2c(-c3ccccc3C)c(NC(=O)Nc3ccc(F)cc3F)n(C)c(=O)c2cc1C [Example 8, N-[1,2-Dihydro-4-(2-methylphenyl)-2,6,7-trimethyl-1-oxoisoquinolin-3-yl]-N'-(2,4-difluorophenyl)urea] |  | 
3 | 89.8% | O=C(Nc1ccc(F)cc1F)Nc1oc(=O)c2cc(Cl)ccc2c1-c1ccccc1 [Example 9, N-(7-Chloro-4-phenylisocoumarin-3-yl)-N'-(2,4-difluorophenyl)urea] |  | 
4 | 98.5% | Cc1ccc2c(=O)oc(NC(=O)Nc3ccc(F)cc3F)c(-c3ccc(F)cc3)c2c1 [Example 10, N-[4-(4-Fluorophenyl)-6-methylisocoumarin-3-yl]-N'-(2,4-difluorophenyl)urea] |  | 
5 | 92.1% | O=C(Nc1ccc(F)cc1F)Nc1oc(=O)c2ccccc2c1-c1ccc(F)cc1 [Example 11, N-[4-(4-Fluorophenyl)isocoumarin-3-yl]-N'-(2,4-difluorophenyl)urea] |  | 
6 | 94.2% | O=C(Nc1ccc(F)cc1F)Nc1oc(=O)c2ccccc2c1-c1ccccc1 [Example 12, N-(4-Phenylisocoumarin-3-yl)-N'-(2,4-difluorophenyl)urea] |  | 
7 | 99.4% | COc1ccccc1-c1c(NC(=O)Nc2ccc(F)cc2F)oc(=O)c2ccccc12 [Example 15, N-[4-(2-Methoxyphenyl)isocoumarin-3-yl]-N'-(2,4difluorophenyl)urea] |  | 125.2 ± 22.6 mg/dL
8 | 60.2% | O=C(Nc1ccc(F)cc1F)Nc1oc(=O)c2ccc(F)cc2c1-c1ccc(F)cc1 [Example 16, N-[6-Fluoro-4-(4-fluorophenyl)isocoumarin-3-yl]-N'-(2,4-difluorophenyl)urea] |  | 
9 | 54.3% | Cn1c(NC(=O)Nc2ccc(F)cc2F)c(-c2cc(C(C)(C)C)c(O)c(C(C)(C)C)c2)c2ccccc2c1=O [Example 23, N-[4-(3,5-Di-t-butyl-4-hydroxyphenyl)-1,2-dihydro-2-methyl-1-oxoisoquinolin-3-yl-]-N'-(2,4-difluorophenyl)urea] |  | 

More lines, now with the values behind:

Row | Structure (SMILES) | inhibition at 1 µM [1] | Cholesterol in Serum ([2]; dose 0.14 mg/kg/day in diet) | Cholesterol in Serum ([2]; dose 0.13 mg/kg/day in diet)
10 | CC(C)(C)OC(=O)Nc1oc(=O)c2ccc(Cl)cc2c1-c1ccccc1 [Example 2, t-Butyl N-(6-chloro-4-phenylisocoumarin-3-yl) carbamate] | 76.1% |  | 
11 | CC(=O)Oc1c(C)cc(NC(=O)Nc2oc(=O)c3ccc(Cl)cc3c2-c2ccccc2)cc1C [Example 13, N-(6-Chloro-4-phenylisocoumarin-3-yl)-N'-(4-acetoxy-3,5-dimethylphenyl)urea] | 95.8% |  | 
12 | COc1ccccc1-c1c(NC(=O)Nc2cc(C)c(OC(C)=O)c(C)c2)oc(=O)c2ccccc12 [Example 14, N-[4-(2-Methoxyphenyl)isocoumarin-3-yl]-N'-(4-acetoxy-3,5-dimethylphenyl)urea] | 99% | 103.4 ± 23.7 mg/dL | 
13 | CC(=O)Oc1c(C)cc(NC(=O)Nc2oc(=O)c3ccc(F)cc3c2-c2ccc(F)cc2)cc1C [Example 17, N-[6-Fluoro-4-(4-fluorophenyl)isocoumarin-3-yl]-N'-(4-acetoxy-3,5-dimethylphenyl)urea] | 65.7% |  | 
14 | CC(=O)Oc1c(C)cc(NC(=O)Nc2oc(=O)c3ccccc3c2-c2ccccc2)cc1C [Example 18, N-(4-Isocoumarin-3-yl)-N'-(4-acetoxy-3,5-dimethylphenyl)urea] | 83.2% |  | 
15 | COc1ccccc1-c1c(NC(=O)NC2CCCCC2)oc(=O)c2ccccc12 [Example 19, N-[4-(2-Methoxyphenyl)isocoumarin-3-yl]-N'-cyclohexylurea] | 97.7% |  | 
16 | CCOC(=O)CNC(=O)Nc1oc(=O)c2ccccc2c1-c1ccccc1OC [Example 20, N-[4-(2-Methoxyphenyl)isocoumarin-3-yl]-N'-ethoxycarbonyl-methylurea] | 88.7% |  | 
17 | CC(=O)Oc1c(C)cc(NC(=O)NC2=C(c3ccccc3)c3ccccc3CS2)cc1C [Example 26, N-(4-acetoxy-3,5-dimethylphenyl)-N'-(4-phenyl-1H-2-benzothiopyran-3-yl)urea] | 94.8% |  | 
18 | COc1ccccc1C1=C(NC(=O)Nc2cc(C)c(OC(C)=O)c(C)c2)SCc2ccccc21 [Example 27, N-(4-Acetoxy-3,5-dimethylphenyl)-N'-[4-(2-methoxyphenyl)-1H-2-benzothiopyran-3-yl]urea] | 99.3% |  | 
19 | COc1ccccc1C1=C(NC(=O)Nc2ccc(N(C)C)cc2)SCc2ccccc21 [Example 28, N-(4-Dimethylaminophenyl)-N'-[4-(2-methoxyphenyl)-1H-2-benzothiopyran-3-yl]urea] | 92% |  | 
20 | Cc1cc(NC(=O)NC2=C(c3ccccc3)c3ccccc3CS2)cc(C)c1O [Example 29, N-(4-Hydroxy-3,5-dimethylphenyl)-N'-(4-phenyl-1H-2-benzothiopyran-3-yl)urea] | 95.5% |  | 
